From patent US20240287533A1, “GLUTEN MODIFICATION” (The Regents of the University of California, priority 2021, published 2024)
“Also recorded” adds a separate entry of the source.

Tests used:
human monocytes (THP-1) = assay: IL-8 production by THP-1 monocytes (ELISA); format: cell-based; details: 18 hours; for IL-8 production compared to the dsDNA-gld-1 complex: peptide in the presence of dsDNA; for IL-8 secretion: dsDNA+peptide, compared to media control, dsDNA alone or peptide alone
Method: (§1) In order to test the biological impact of gluten peptide fragment/dsDNA complexes, human monocytes (THP-1) and human colorectal adenocarcinoma cells (HT-29) were treated with medium as a control, dsDNA alone, gld-1 alone, or dsDNA+gld-1 for 18 hours, then production and secretion of interleukin-8 (IL-8) were assessed by ELISA.

Escherichia coli dsDNA = assay: Small Angle X-ray Scattering (SAXS) of peptide-dsDNA complexes; format: binding; details: peptide incubated with genomic E. coli dsDNA
Method: The peaks correspond to a rhombic columnar lattice with inter dsDNA spacing, d=4.0 nm, and tilt angle, γ=104.6°. To facilitate visualization, spectra were manually offset vertically by a multiplicative factor.
Double stranded DNA (dsDNA) is an example of a PAMP that is readily available in the gastrointestinal tract (e.g., from food or the gut microbiome). To assess the ability of gluten derived peptide gld-1 to bind dsDNA, Escherichia coli dsDNA was incubated with gld-1, and the formation of an ordered dsDNA-gld-1 complex was assessed.
Small Angle X-ray Scattering (SAXS) measurements of the complex produced Bragg reflections at q10=1.61 and q11=2.55 nm^−1.
Genomic E. coli dsDNA was incubated with gld-2 and gld-3 to test the formation of an ordered dsDNA-peptide complex.

human wild-type TLR9 = target: T1, human wild-type TLR9 (Homo sapiens, UniProt Q9NR96); assay: NF-κB/IL-8 luciferase reporter in HEK293 cells transfected with TLR9 plasmid; format: cell-based; details: 4 hours
T1 construct: expressed in transfected cells
T1 sequence (Q9NR96 26-1032): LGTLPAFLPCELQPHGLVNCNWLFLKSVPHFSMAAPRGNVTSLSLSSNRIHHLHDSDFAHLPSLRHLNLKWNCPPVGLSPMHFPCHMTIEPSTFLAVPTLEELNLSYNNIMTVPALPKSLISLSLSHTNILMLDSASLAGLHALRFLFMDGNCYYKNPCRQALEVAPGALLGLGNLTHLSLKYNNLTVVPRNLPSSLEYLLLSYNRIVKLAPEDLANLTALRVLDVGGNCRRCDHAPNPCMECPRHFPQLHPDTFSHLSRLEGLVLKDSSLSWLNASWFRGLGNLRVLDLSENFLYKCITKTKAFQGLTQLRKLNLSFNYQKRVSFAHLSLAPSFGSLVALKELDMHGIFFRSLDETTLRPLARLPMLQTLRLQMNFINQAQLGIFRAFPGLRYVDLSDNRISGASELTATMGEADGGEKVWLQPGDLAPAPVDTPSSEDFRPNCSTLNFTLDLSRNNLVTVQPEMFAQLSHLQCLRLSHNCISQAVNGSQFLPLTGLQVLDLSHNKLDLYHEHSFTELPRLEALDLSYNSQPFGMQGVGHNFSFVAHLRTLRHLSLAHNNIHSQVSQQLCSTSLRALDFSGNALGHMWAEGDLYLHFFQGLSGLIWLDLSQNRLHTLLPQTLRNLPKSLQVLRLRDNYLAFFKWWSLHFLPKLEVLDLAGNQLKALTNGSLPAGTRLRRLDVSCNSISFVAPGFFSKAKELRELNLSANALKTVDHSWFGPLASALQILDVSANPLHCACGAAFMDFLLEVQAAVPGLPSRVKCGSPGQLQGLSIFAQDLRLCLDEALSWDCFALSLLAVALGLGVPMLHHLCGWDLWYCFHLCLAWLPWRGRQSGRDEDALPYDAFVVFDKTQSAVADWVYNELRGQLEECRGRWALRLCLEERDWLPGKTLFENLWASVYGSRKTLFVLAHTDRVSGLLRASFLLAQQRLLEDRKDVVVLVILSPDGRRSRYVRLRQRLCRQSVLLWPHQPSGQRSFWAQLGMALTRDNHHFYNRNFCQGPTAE
Method: TLR9, Toll-like Receptor 9.
(§2) After 48 hours of recovery, cells were then treated for 4 hours with medium as a control, dsDNA alone, gld-1 peptide alone, or dsDNA-gld-1 complex, and luciferase activity measured.

wild-type macrophages = assay: Cytokine gene expression (qPCR) in wild-type macrophages; format: cell-based, mouse; details: dsDNA-peptide complex, 20 hours
From the text: (§3) To further validate the role of the dsDNA-gld-1 complex in the innate immune activation of TLR9, TLR9 knock-out (TLR9KO) mouse macrophages were compared to wild-type controls. […] Such increased gene expression was attenuated in TLR9KO macrophages, which lack TLR9 (FIG. 6C).

[1] = tested on: TLR9 knock-out (TLR9KO) mouse macrophages; assay: Cytokine gene expression (qPCR) in TLR9 knockout macrophages; format: cell-based; details: dsDNA-peptide complex, 20 hours, TLR9KO versus wild-type
From the text: as §3

[2] = tested on: human colorectal adenocarcinoma cells (HT-29); assay: IL-8 production by HT-29 cells (ELISA); format: cell-based; details: dsDNA+peptide, 18 hours, compared to dsDNA or peptide alone or media control
Method: as §1

[3] = tested on: HEK293 cells (which do not express TLR9); assay: NF-κB/IL-8 luciferase reporter in HEK293 cells transfected with pcDNA3.1 vector control; format: cell-based, human; details: 4 hours
Method: as §2

## LAAQLWQIPEQSRAQAIHNVVH (listed as Triticum aestivum) [gld-1A, variant of gld-1 in which all cysteines were replaced with alanines]
Human monocytes (THP-1)
  IL-8 production compared to the dsDNA-gld-1 complex: reduced the dsDNA-peptide complex activity

## LWQIPEQSQCQAIHNVVHA (listed as Triticum aestivum) [gld-2, single mutation of gld-1 replacing a cationic amino acid with glutamine]
Escherichia coli dsDNA
  formation of an ordered nanocrystalline dsDNA-peptide complex (Bragg peaks): inability of these two peptides to form an ordered nanocrystalline columnar structure with dsDNA
Human monocytes (THP-1)
  IL-8 production compared to the dsDNA-gld-1 complex: attenuated production of IL-8

## LWQIPEQSQCQAIHNVVQA (listed as Triticum aestivum) [gld-3, double mutation of gld-1 replacing cationic amino acids with glutamine]
Escherichia coli dsDNA
  formation of an ordered nanocrystalline dsDNA-peptide complex (Bragg peaks): inability of these two peptides to form an ordered nanocrystalline columnar structure with dsDNA
Human monocytes (THP-1)
  IL-8 production compared to the dsDNA-gld-1 complex: attenuated production of IL-8

## LWQIPEQSRCQAIHNVVHA (listed as Triticum aestivum) [gld-1]
Human wild-type TLR9; dsDNA-peptide complex, compared to dsDNA alone
  NF-κB/IL-8 activation (luciferase): significantly higher activation
Human wild-type TLR9; dsDNA-peptide complex, compared to the media control
  NF-κB/IL-8 activation (luciferase): significant increase
Human wild-type TLR9; peptide alone, compared to the media control
  NF-κB/IL-8 activation (luciferase): did not significantly increase activation
wild-type macrophages
  interleukin-6 (IL-6) gene expression: significant increase
  keratinocyte-derived chemokine (KC) gene expression: significant increase
[1]
  IL-6 gene expression: attenuated
[2]
  IL-8 secretion: increased secretion of IL-8
Escherichia coli dsDNA
  formation of an ordered nanocrystalline dsDNA-peptide complex (Bragg peaks): form strongly immunomodulatory complexes with dsDNA; also recorded: able to organize dsDNA into a nano-crystalline lattice structure; also recorded: able to form a well-structured complex
Human monocytes (THP-1)
  IL-8 secretion: significant increase in IL-8 secretion
[3]; dsDNA-peptide complex
  NF-κB/IL-8 luciferase reporter signal: comparable NF-κB/IL-8 luciferase reporter signal to the media control
[3]; peptide alone
  NF-κB/IL-8 luciferase reporter signal: comparable NF-κB/IL-8 luciferase reporter signal to the media control

## RAAQQLRDVSAKARSVAVSQVAR (listed as Triticum aestivum) [gld-4A, cysteine-to-alanine mutant of gld-4]
Human monocytes (THP-1); with dsDNA
  IL-8 production, gld-4A compared to gld-4: No significant difference

## RCCQQLRDVSAKCRSVAVSQVAR (listed as Triticum aestivum) [gld-4]
Human monocytes (THP-1)
  IL-8 secretion: stimulated IL-8 production
  IL-8 production compared to the dsDNA-gld-1 complex: smaller than the dsDNA-gld-1 complex
